Experimental findings from paper PMC7204524 (Tetrahedron, 2020) are described below.

The target in this assay is T1, T. brucei methionyl-tRNA synthetase (TbMetRS) (Trypanosoma brucei, UniProt Q38C91).
T1 sequence (Q38C91 1-773): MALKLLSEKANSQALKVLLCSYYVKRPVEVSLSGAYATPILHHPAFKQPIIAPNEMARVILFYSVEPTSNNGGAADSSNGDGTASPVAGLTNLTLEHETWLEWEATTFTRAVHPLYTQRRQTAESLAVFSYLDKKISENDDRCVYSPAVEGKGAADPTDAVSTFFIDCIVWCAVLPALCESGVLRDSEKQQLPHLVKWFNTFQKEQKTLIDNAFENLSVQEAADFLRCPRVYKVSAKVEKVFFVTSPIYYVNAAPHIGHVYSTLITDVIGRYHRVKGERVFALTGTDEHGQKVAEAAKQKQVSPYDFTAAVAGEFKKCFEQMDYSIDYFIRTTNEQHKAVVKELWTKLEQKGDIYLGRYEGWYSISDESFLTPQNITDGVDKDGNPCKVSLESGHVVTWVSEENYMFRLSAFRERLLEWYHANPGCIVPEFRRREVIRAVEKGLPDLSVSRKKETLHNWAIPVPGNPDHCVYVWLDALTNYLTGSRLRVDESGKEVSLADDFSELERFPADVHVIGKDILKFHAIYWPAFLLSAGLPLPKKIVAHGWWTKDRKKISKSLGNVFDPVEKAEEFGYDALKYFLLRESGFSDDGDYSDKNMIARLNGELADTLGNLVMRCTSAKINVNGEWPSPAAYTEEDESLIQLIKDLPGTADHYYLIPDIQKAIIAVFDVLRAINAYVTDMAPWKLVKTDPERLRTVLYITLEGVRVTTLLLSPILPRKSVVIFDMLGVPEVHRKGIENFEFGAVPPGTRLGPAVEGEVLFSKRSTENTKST
Description: colorimetric pyrophosphatase-coupled inhibition assay. Type of assay: biochemical.

The structures appear in SMILES notation.

As for `C[C@@H](O)[C@@H]1C(=O)N(CCc2c[nH]c3ccccc23)CC[C@@H]1N(C)Cc1cc(Cl)cc(Cl)c1` (racemic) [14a, (3R,4S)-1-(2-(1H-Indol-3-yl)ethyl)-4-((3,5-dichlorobenzyl)(methyl)amino)-3-((R)-1-hydroxyethyl)piperidin-2-one], the “%” value was 15–30 % inhibition at 200 μM.
